Test results from patent US20170073371A1, “ANTIMICROBIAL PEPTIDES” (ROBERT BOSCH GESELLSCHAFT FÜR MEDIZINISCHE FORSCHUNG MBH, priority 2012, published 2017).
Where no end group is shown, it is not given here.

How the values were obtained:
[1] = test system: commensal bacteria of the human intestinal flora; experiment: Antimicrobial radial diffusion assay of human beta-defensins at pH 7.4 or 5.7, with or without DTT; format: cell-based
Procedure: (§1) Antimicrobial radial diffusion assays for anaerobic bacteria were carried out as described previously (see Schröder et al.: “Reduction of disulfide bonds unmasks potent antimicrobial activity of human beta-defensin 1”, Nature, 469: 419-423 (2011)). In brief, the bacteria were anaerobically cultured (Oxoid AnaeroGen”, England) for 24 hours at 37° C. on Columbia agar plates, then inoculated into liquid trypticase soy broth (TSB) medium and cultured again for 24 hours. The bacterial cultures were then washed and diluted to an optical density (OD620 nm)=0.1, of which 150 μl was used for the effectiveness assay. Incubation occurred under anaerobic conditions in 10 ml 10 mM sodium phosphate having a pH of 7.4 with 0.3 mg/ml TSB pwder and 1% (w/v) low-EEO agarose (agarose with very low EEO value)(Appli-Chem) with 0 or 2 mM dithiothreitol (DTT, Sigma Aldrich), with 1 μg synthetic, oxidized hBD-1 (Peptide Institute, Japan) or synthetic peptides, for three hours. An overcoating gel having 6% (w/v) TSB powder, 1% agarose, and 10 mM sodium phosphate buffer (pH 7.4 or 5.7), with or without DTT, was placed onto the plates. After incubation for 48 hours at 37° C. the diameters of the inhibition zones were measured. The experiments were repeated at least three times.
In the present case hBD-1 and its antimicrobial activity have been further investigated. For this, the antimicrobial activity of the three human beta-defensins hBD-1, -2, and -3 with respect to commensal bacteria of the human intestinal flora were tested under standard conditions (pH 7.4) and slightly acidic conditions (pH 5.7); under both conditions, reducing conditions were also tested by adding 2 mM of the chemical reducing agent dithiothreitol (DTT) to the growth medium.

[2] = Schröder et al., Nature 469:419-423 (2011); cited from earlier work
[3] = test system: Bifidobacterium adolescentis; experiment: Antimicrobial radial diffusion assay (inhibition zone diameter); format: cell-based; conditions: for antimicrobial activity (diameter of inhibition zone): FIG. 1, radial diffusion
Procedure: (§2) The letters indicate the amino acids using the single-letter code. […] The diameter of the inhibition zones represents the antimicrobial activity; a diameter of 2.5 mm is the diameter of an empty punched well in an agar plate which contains only carrier fluid (negative control). The experiments were repeated at least three times, and the mean plus standard deviation is shown.
as §1

[4] = test system: Escherichia coli; experiment: as above; format: cell-based; conditions: FIG. 1b, 1c
Procedure: as §2, §1

[5] = test system: E. coli K12; experiment: Radial diffusion assay, D- versus L-amino acid octapeptide (FIG. 3a); format: cell-based, Escherichia coli
Procedure: Antimicrobial radial diffusion assays for anaerobic bacteria were carried out as described previously (see Schröder et al.: “Reduction of disulfide bonds unmasks potent antimicrobial activity of human beta-defensin 1”, Nature, 469: 419-423 (2011)). In brief, the bacteria were anaerobically cultured (Oxoid AnaeroGen”, England) for 24 hours at 37° C. on Columbia agar plates, then inoculated into liquid trypticase soy broth (TSB) medium and cultured again for 24 hours. The bacterial cultures were then washed and diluted to an optical density (OD620 nm)=0.1, of which 150 μl was used for the effectiveness assay. Incubation occurred under anaerobic conditions in 10 ml 10 mM sodium phosphate having a pH of 7.4 with 0.3 mg/ml TSB pwder and 1% (w/v) low-EEO agarose (agarose with very low EEO value)(Appli-Chem) with 0 or 2 mM dithiothreitol (DTT, Sigma Aldrich), with 1 μg synthetic, oxidized hBD-1 (Peptide Institute, Japan) or synthetic peptides, for three hours. An overcoating gel having 6% (w/v) TSB powder, 1% agarose, and 10 mM sodium phosphate buffer (pH 7.4 or 5.7), with or without DTT, was placed onto the plates. After incubation for 48 hours at 37° C. the diameters of the inhibition zones were measured. The experiments were repeated at least three times. […]

[6] = test system: (opportunistic) pathogenic microorganisms; experiment: Flow cytometric antimicrobial assay (membrane depolarization), all tested pathogens; format: cell-based; conditions: 50 μg/ml; E. coli, S. aureus, C. albicans, B. fragilis; FIG. 2
Procedure: (§3) The following peptides were investigated: modified octapeptide (SEQ ID NO. 4), wild type octapeptide (SEQ ID NO. 1), alanine-mutated octapeptide (SEQ ID NO. 7), and a heptapeptide (SEQ ID NO. 8) (each 50 μg/ml) were tested in a flow cytometric antimicrobial effectiveness assay against Escherichia coli, Staphylococcus aureus, Candida albicans, and Bacteroides fragilis. The letters once again indicate the respective amino acids in the one-letter code. The experiments were repeated twice in double batches, and the mean plus standard deviation is shown;
(§4) Flow cytometric antimicrobial assays with which the membrane depolarization of the bacteria and fungi were measured were carried out as previously described (see Nuding et al., “A flow cytometric assay to monitor antimicrobial activity of defensins and cationic tissue extracts,” Journal of Microbiological Methods, 65: 335-380 (2006)).
(§5) In brief, 1.5×10^6 cells per ml were incubated in 1:6-diluted Schaedler medium at 37° C. with peptides at a final volume of 50 μl. The defensins were dissolved in 0.01% acetic acid and were added to the bacterial/fungal suspensions at the final concentrations indicated. Bacterial or fungal suspensions that had been incubated with solvent (0.01% acetic acid) served here as controls for viability. After 90 minutes the suspensions were incubated for 10 minutes with 1 mg/ml of the membrane-potential-sensitive dye DiBAC4(3) ([bis-(1,3-dibutylbarbiturate)trimethine oxanol]) (Invitrogen, USA). The suspensions were centrifuged, and sediments resuspended in […] phosphate-buffered saline. The percentage of depolarized fluorescing bacteria or fungi in the suspension was determined using a FACSCalibur flow cytometer (Becton-Dickinson, USA) utilizing Cell Quest software (Becton-Dickinson). The experiments were repeated twice, each in duplicate.

[7] = test system: Bacteroides fragilis; experiment: Flow cytometric antimicrobial assay (membrane depolarization); format: cell-based; conditions: 50 μg/ml; FIG. 2
Procedure: as §3, §4, §5

[8] = test system: Candida albicans; experiment: as above; format: cell-based; conditions: 50 μg/ml; FIG. 2
Procedure: as §3, §4, §5

[9] = test system: Escherichia coli; experiment: as above; format: cell-based; conditions: 50 μg/ml; FIG. 2
Procedure: as §3, §4, §5

[10] = test system: Staphylococcus aureus; experiment: as above; format: cell-based; conditions: 50 μg/ml; FIG. 2
Procedure: as §3, §4, §5

[11] = Reversed-phase HPLC analysis of hydrophobicity; format: physicochemical; conditions: data not shown
Procedure: For analysis by high performance liquid chromatography (HPLC), the octapeptides were mixed with 0.1% (v/v) trifluoracetic acid (TFA) and analyzed with an Agilent 1200 system (Agilent) and a Synergi reversed phase (RP) column (250×4.6 mm, 4 μm, Phenomenex, Germany).
In further experiments a reversed-phase HPLC analysis was carried out in order to investigate the hydrophobicity of the tested peptides (data not shown).

hBD-3: human beta-defensin, obtained from Peptide Institute Inc. (GIINTLQKYYCRVRGGRCAVLSCLPKEEQIGKCSTRGRKCCRRKK; ends and bridges not checked; cysteine pairing not given here; UniProt P81534 23-67, looked up)
antimicrobial activity compared with the other two defensins ([1]; in most cases, tested commensals): strongest activity

hBD-1: human beta-defensin 1, obtained from Peptide Institute Inc. (DHYNCVSSGGQCLYSACPIFTKIQGTCYRGKAKCCK; disulfide (positions not given here); UniProt P60022 33-68, looked up)
activation of antimicrobial activity by reduction ([1]; pH 5.7, 2 mM DTT, data not shown): activation was not observed | antimicrobial activity, effect of reduction ([1]; reducing conditions, 2 mM dithiothreitol (DTT) in growth medium, data not shown): became active by reduction | antimicrobial activity ([1]; standard conditions (pH 7.4), data not shown): largely inactive | antimicrobial activity under reducing conditions [2]: elevated antimicrobial activity

RGKAKCAK [Cys7 exchanged, octapeptide with Cys7 exchanged for alanine]
antimicrobial activity (diameter of inhibition zone) [3]: activity was greatly decreased | antimicrobial activity (diameter of inhibition zone) [4]: increased the antimicrobial activity

RGKAKACK [Cys6 exchanged, octapeptide with Cys6 exchanged for alanine]
antimicrobial activity (diameter of inhibition zone) [3]: activity was greatly decreased | antimicrobial activity (diameter of inhibition zone) [4]: increased the antimicrobial activity

RGKAKCCK (not fully specified (some residues); cysteine pairing not given here; also: termini modified in some versions, not given here)
activity compared with the peptide made up of L-amino acids ([3]; FIG. 3b): elevated activity | activity compared with the peptide made up of L-amino acids [5]: weaker activity

RGKAKCCK [wild type octapeptide, octapeptide of the eight terminal amino acids of the carboxy terminus of hBD-1]
antimicrobial activity (diameter of inhibition zone) [3]: greater antimicrobial activity than the previously tested heptapeptide | antimicrobial activity (diameter of inhibition zone) [4]: also had antimicrobial activity | effectiveness (depolarized bacteria or fungi) [6]: only marginal in most cases

alanine-mutated octapeptide: alanine-mutated octapeptide; both cysteines exchanged (RGKAKAAK) [reference compound]
antimicrobial activity (diameter of inhibition zone) [3]: brought activity to a complete standstill | antimicrobial activity (diameter of inhibition zone) [4]: almost entirely shut down antimicrobial activity | effectiveness (depolarized bacteria or fungi) [6]: only marginal in most cases

ac-RGKAKCCK-NH2 (Ac-RGKAKCCK-NH2; cysteine pairing not given here) [modified octapeptide]
antimicrobial activity (diameter of inhibition zone) [3]: rose sharply | antimicrobial activity (diameter of inhibition zone) [4]: did not differ significantly by comparison with the wild type peptide | activity (depolarized bacteria) [7]: but not with respect to Escherichia coli and Bacteroides fragilis | activity (depolarized fungi) [8]: outstanding activity | activity (depolarized bacteria) [9]: but not with respect to Escherichia coli and Bacteroides fragilis | activity (depolarized bacteria) [10]: outstanding activity | hydrophobicity (order of elution from RP column) [11]: highest hydrophobicity

wild type heptapeptide: heptapeptide that represents the seven terminal amino acids of hBD-1 (GKAKCCK) [reference compound]
antimicrobial activity (diameter of inhibition zone) [3]: highest activity | effectiveness (depolarized bacteria or fungi) [6]: only marginal in most cases
